In patent US6545006B1, “Process for obtaining L-dihydroorotic acid and use thereof” (Aventis Pharma Deutschland GmbH, priority 1997, dated 2003):

Columns and labels:
Assay type in all cases: physicochemical
[1] = Stability of L-DHO standard stock solution; details: 1 mg L-DHO in 1 ml water, frozen at −20° C.
Experimental: (§1) A standard stock solution was prepared by dissolving 1 mg L-DHO in 1 ml water. Aliquots of 400 μl were frozen at −20° C. Stability of these solutions was guaranteed for at least 4 weeks. Defined amounts of the stock solution were added to the cell lysates and to human or rat serum and assayed to evaluate the linearity between the increase of the signal and the spiked L-DHO concentration. The precision and the accuracy of the method were investigated by using quality control (QC) samples with an L-DHO content in the low, the middle and the high concentration range of the signal/concentration linearity curve.

[2] = Stability of L-DHO for 18 h at 14° C. in Jurkat cell lysates; details: for Residue (%) / concentration 1 20 μg/ml / Concentration 2 100 μg/ml: Jurkat cells, 14° C.
Experimental: (§2) In order to simulate the conditions of the samples when they are waiting in the autosampler for the actual analysis the stability during 18 h at 14° C. was determined. For that reason the cell lysates were spiked and then treated with 30 μl 6 M KOH/100 μl lysate before the start of the analysis. Correspondingly, the serum samples were spiked and then deproteinized as described in 1.5.2. […] In serum samples the analyte is stable under these conditions. For these reasons only so many HPLC samples were prepared that the maximal length of stay in the autosampler was less than 18 h.

[3] = Stability of L-DHO in rat serum at −20° C.; details: for Residue (%) / concentration 1 5 μg/ml / Concentration 2 20 μg/ml: Rat serum
Experimental: as §1
(§3) In order to reduce the protein content […] serum were added to a Microcon filter (10 000 D, model 10, code 42407, Amicon) and centrifuged for 30 min at 13 000 rounds per minute (rpm). The flow through consisted of about 150 μl and contains the analyte L-DHO. From this liquid 20 μl were used for HPLC analysis.
(§4) L-DHO was stable under the above mentioned conditions in Jurkat cells over a period of at least 4 weeks. […] For these reasons it can be stated only that in rat and human serum samples L-DHO is definitely stable only for at least 1 week.

[4] = Stability of L-DHO for 18 h at 14° C. in human serum; details: for Residue (%) / concentration 1 5 μg/ml / Concentration 2 20 μg/ml: Human serum, 14° C.
Experimental: as §2

[5] = Stability of L-DHO in human serum at −20° C.; details: for Residue (%) / concentration 1 5 μg/ml / Concentration 2 20 μg/ml: Human serum
Experimental: as §1, §3, §4

[6] = Stability of L-DHO in Jurkat cell lysates at −20° C.; details: Jurkat cells
Experimental: as §1
Cells were suspended in a defined medium volume and cell density of samples was determined via vital microscopy using Eosin. About 10×10^6 cells were removed, pelleted by 5 minute-centrifugation at 350×g and the supernatant was discarded. Lysis of the cells was done by resuspending the cell pellet in 500 μl 1.2 M HClO4. This mixture was transferred in 2.0 ml Eppendorf safe-lock caps and the protein was precipitated by 2 minutes high speed centrifugation. The supernatant was completely removed, transferred in glass vials and after addition of 500 μl chloroform thoroughly mixed by 2 minutes vortexing. Cellular lipids were extracted by chloroform following 10 minutes centrifugation (1502 g) at 10° C. The purified supernatant was collected in 2 ml Eppendorf-caps and stored at −20° C. until further used. For the HPLC analysis 100 μl of this supernatant were neutralized with 30 μl 6 M KOH. After shaking for about 5 sec the samples were stored on ice for 30 min. Thereafter they were centrifuged for 5 min at 15 000 rpm. From the clear supernatant 20 μl were used for the HPLC analysis.
as §4

[7] = Stability of L-DHO for 18 h at 14° C. in rat serum; details: for concentration 1 5 μg/ml / Residue (%) / Concentration 2 20 μg/ml: Rat serum, 14° C.
Experimental: as §2

## O=C1C[C@@H](C(=O)O)NC(=O)N1 [L-DHO, L-dihydroorotic acid]
[1]
  Stability of standard stock solution: at least 4 weeks
[2]; 20 μg/ml, 0 h
  Residue (%): 100%
  concentration 1 20 μg/ml: 19960 ng/mL
[2]; 20 μg/ml, 18 h
  Residue (%): 93.2%
  concentration 1 20 μg/ml: 18600 ng/mL
[2]; 100 μg/ml, 0 h
  Concentration 2 100 μg/ml: 100020 ng/mL
  Residue (%): 100%
[2]; 100 μg/ml, 18 h
  Concentration 2 100 μg/ml: 97430 ng/mL
  Residue (%): 97.4%
[2]; cells, 18 h at 14° C.
  reduction of L-DHO content: ≤ 7%
[3]; 5 μg/ml, Time 0 (h)
  Residue (%): 100%
  concentration 1 5 μg/ml: 4300 ng/mL
[3]; 5 μg/ml, Time 7 (h)
  Residue (%): 105.1%
  concentration 1 5 μg/ml: 4520 ng/mL
[3]; 5 μg/ml, Time 14 (h)
  Residue (%): 111.9%
  concentration 1 5 μg/ml: 4810 ng/mL
[3]; 5 μg/ml, Time 21 (h)
  Residue (%): 129.1%
  concentration 1 5 μg/ml: 5550 ng/mL
[3]; 20 μg/ml, Time 0 (h)
  Concentration 2 20 μg/ml: 19940 ng/mL
  Residue (%): 100%
[3]; 20 μg/ml, Time 7 (h)
  Concentration 2 20 μg/ml: 19620 ng/mL
  Residue (%): 98.4%
[3]; 20 μg/ml, Time 14 (h)
  Concentration 2 20 μg/ml: 20930 ng/mL
  Residue (%): 105.0%
[3]; 20 μg/ml, Time 21 (h)
  Concentration 2 20 μg/ml: 22330 ng/mL
  Residue (%): 112.2%
[3]; rat serum
  period over which L-DHO is definitely stable: at least 1 week
[4]; 5 μg/ml, 0 h
  Residue (%): 100%
  concentration 1 5 μg/ml: 3340 ng/mL
[4]; 5 μg/ml, 18 h
  Residue (%): 100.9%
  concentration 1 5 μg/ml: 3370 ng/mL
[4]; 20 μg/ml, 0 h
  Concentration 2 20 μg/ml: 18780 ng/mL
  Residue (%): 100%
[4]; 20 μg/ml, 18 h
  Concentration 2 20 μg/ml: 22090 ng/mL
  Residue (%): 117.6%
[4]; human serum, 18 h at 14° C.
  stability of the analyte in serum samples: stable
[5]; 5 μg/ml, Time 0 (h)
  Residue (%): 100%
  concentration 1 5 μg/ml: 4670 ng/mL
[5]; 5 μg/ml, Time 8 (h)
  Residue (%): 103.0%
  concentration 1 5 μg/ml: 4810 ng/mL
[5]; 5 μg/ml, Time 65 (h)
  Residue (%): 104.3%
  concentration 1 5 μg/ml: 4870 ng/mL
[5]; 20 μg/ml, Time 0 (h)
  Concentration 2 20 μg/ml: 20220 ng/mL
  Residue (%): 100%
[5]; 20 μg/ml, Time 8 (h)
  Concentration 2 20 μg/ml: 20380 ng/mL
  Residue (%): 100.8%
[5]; 20 μg/ml, Time 65 (h)
  Concentration 2 20 μg/ml: 23200 ng/mL
  Residue (%): 114.7%
[5]; human serum
  period over which L-DHO is definitely stable: at least 1 week
[6]; 20 μg/ml, 0 days
  Residue (%): 100%
  concentration 1 20 μg/ml: 19340 ng/mL
[6]; 20 μg/ml, 7 days
  Residue (%): 99.7%
  concentration 1 20 μg/ml: 19280 ng/mL
[6]; 20 μg/ml, 29 days
  Residue (%): 103.3%
  concentration 1 20 μg/ml: 19980 ng/mL
[6]; 100 μg/ml, 0 days
  Concentration 2 100 μg/ml: 100050 ng/mL
  Residue (%): 100%
[6]; 100 μg/ml, 7 days
  Concentration 2 100 μg/ml: 99090 ng/mL
  Residue (%): 99.0%
[6]; 100 μg/ml, 14 days
  Concentration 2 100 μg/ml: 115320 ng/mL
  Residue (%): 115.3%
[6]; 100 μg/ml, 29 days
  Concentration 2 100 μg/ml: 99350 ng/mL
  Residue (%): 99.3%
[6]; 2-3 freezing/thawing cycles
  period over which L-DHO was stable: at least 4 weeks
[7]; 5 μg/ml, 0 h
  concentration 1 5 μg/ml: 4610 ng/mL
[7]; 5 μg/ml, 18 h
  Residue (%): 107.6%
  concentration 1 5 μg/ml: 4960 ng/mL
[7]; 20 μg/ml, 0 h
  Concentration 2 20 μg/ml: 19990 ng/mL
  Residue (%): 100%
[7]; 20 μg/ml, 18 h
  Concentration 2 20 μg/ml: 20530 ng/mL
  Residue (%): 102.7%
[7]; rat serum, 18 h at 14° C.
  stability of the analyte in serum samples: stable
